Converted amounts (≈) assume the structure as drawn. Like-named read-outs stand apart in the source and are kept apart here.
What was measured:
rhinovirus HGP = assay: Inhibition of viral cytopathogenic effect in HeLa cells (rhinovirus HGP); assay type: cell-based; details: Enterovirus, 48 h, read-out: IC50 rhinovirus HGP
Coxsackie virus B1 [1] = assay: Inhibition of viral cytopathogenic effect in HeLa cells (Coxsackie virus B1); assay type: cell-based; details: 24 h, read-out: IC50 Coxsackie virus B1
Coxsackie virus B1 [2] = assay: Anti-Coxsackie virus activity, lethal infection in mice; details: Mus musculus, 504 h, read-out: Survival
acute toxicity in mice = details: mouse, in vivo, day 21
influenzavirus A2/Adachi = assay: Anti-influenzavirus activity in mice; details: up to 21 days
[3] = 50% inhibition of viral c.p.e., HeLa cells, 2 days at 33° C.
[4] = 50% inhibition of viral c.p.e., HeLa cells, 1 day at 37° C.

Compound | IC50 (rhinovirus HGP; [3]) [µg/mL] | IC50 (Coxsackie virus B1 [1]; [4]) [µg/mL] | further results
COc1cc(O)c2c(=O)c(OC)c(-c3ccc(OC(=O)[C@@H](N)CCC(=O)O)c(OC)c3)oc2c1 [4'-(L-α-glutamyloxy)-5-hydroxy-3,3',7-trimethoxyflavone] | 0.25 (≈ 0.528 µM) | 0.25 to 0.5 (≈ 0.528 to 1.06 µM) | –
COc1cc(O)c2c(=O)c(OC)c(-c3ccc(O[C@@H]4O[C@H](CO)[C@@H](O)[C@H](O)[C@H]4O)c(OC)c3)oc2c1 [4'-(β-D-glucopyranosyloxy)-5-hydroxy-3,3',7-trimethoxyflavone] | 0.25 (≈ 0.494 µM) | 0.25 to 0.5 (≈ 0.494 to 0.987 µM) | –
COc1cc(O)c2c(=O)c(OC)c(-c3ccc(OC(C)=O)c(OC)c3)oc2c1 [4'-acetoxy-5-hydroxy-3,3',7-trimethoxyflavone] | 0.5 (≈ 1.29 µM) | 0.25 to 0.5 (≈ 0.647 to 1.29 µM) | –
COc1c(-c2ccc(N)cc2)oc2cc(O)cc(O)c2c1=O [4'-amino-5,7-dihydroxy-3-methoxyflavone] | 1 to 3 (≈ 3.34 to 10 µM) | 3 to 10 (≈ 10 to 33.4 µM) | –
COc1cc(O)c2c(=O)c(OC)c(-c3ccc(N)cc3)oc2c1 [4'-amino-5-hydroxy-3,7-dimethoxyflavone] | 3 (≈ 9.58 µM) | 10 to 30 (≈ 31.9 to 95.8 µM) | –
COc1cc(OC)c2c(=O)c(OC)c(-c3ccc(O)c(OC)c3)oc2c1 [4'-hydroxy-3,3',5,7-tetramethoxyflavone] | 2 to 7 (≈ 5.58 to 19.5 µM) | 6 to 7 (≈ 16.7 to 19.5 µM) | –
COc1ccc(-c2oc3cc(O)cc(O)c3c(=O)c2OC)cc1 [5,7-dihydroxy-3,4'-dimethoxyflavone] | – | – | IC50 (rhinovirus HGP; HeLa): 0.5 µg/mL (≈ 1.59 µM); IC50 (Coxsackie virus B1 [1]; HeLa): > 4 µg/mL
COc1cc(OC(=O)C(C)C)c2c(=O)c(OC)c(-c3ccc(OC(=O)C(C)(C)C)c(OC)c3)oc2c1 [5-(isobutyryloxy)-3,3',7-trimethoxy-4'-(pivaloyloxy)-flavone] | 0.3 (≈ 0.602 µM) | 0.3 to 1 (≈ 0.602 to 2.01 µM) | responders at 10 mg/kg (Coxsackie virus B1 [2]; po): 30%; responders at 20 mg/kg (Coxsackie virus B1 [2]; po): 40%
COc1cc(O)c2c(=O)c(OC)c(-c3ccc(OC(=O)C(C)(C)C)c(OC)c3)oc2c1 [5-hydroxy-3,3',7-trimethoxy-4'-(pivaloyloxy)-flavone] | 0.3 (≈ 0.7 µM) | 0.3 to 1 (≈ 0.7 to 2.33 µM) | –
COc1ccc(-c2oc3cc(OC)cc(O)c3c(=O)c2OC)cc1 [5-hydroxy-3,4',7-trimethoxyflavone] | 1 (≈ 3.05 µM) | > 8 | –
COc1cc(O)c2c(=O)c(OC)c(-c3ccc(OC(=O)[C@@H](N)CCCCN)c(OC)c3)oc2c1 [5-hydroxy-4'-(L-lysyloxy)-3,3',7-trimethoxyflavone] | 0.25 (≈ 0.529 µM) | – | IC50 (Coxsackie virus B1 [1]; HeLa): 0.25 µg/mL (≈ 0.529 µM); LD50 at 504 h (acute toxicity in mice; ip, single dose i.p., dissolved in dimethyl sulfoxide, read-out: LD50 i.p.): 1000 mg/kg; LD50 at 504 h (acute toxicity in mice; po, single dose p.o., suspended in 0.5% carboxymethylcellulose, read-out: LD50 p.o.): > 5000 mg/kg; responders at 10 mg/kg (Coxsackie virus B1 [2]; iv): 54%
NC12CC3CC(CC(C3)C1)C2 [amantadine, reference compound] | – | – | Survivals (%) (influenzavirus A2/Adachi; 20 mg/kg × 9, i.p.): 0%; Survivals (influenzavirus A2/Adachi; 40 mg/kg × 9, i.p., survivors/total): 2/7; Survivals (%) (influenzavirus A2/Adachi; 40 mg/kg × 9, i.p.): 29%

Source: patent publication US4352792A, “3-Alkoxyflavone antiviral agents” (priority 1979, dated 1982)
